In patent US20250195433A1, “Compositions Having Improved Bioavailability of Therapeutics and Uses Thereof” (TRx Biosciences Limited, priority 2022, published 2025):

How the values were obtained:
[1] = Miscibility / self-emulsification test modelling ICH dissolution testing; type: physicochemical; details: 1 g of 100% or 75% preparation in 1 L PBS with […] curcumin, 37° C., stirring 300 rpm 10 min, then 10 min without stirring
Protocol: To assess whether oleic acid could self-emulsify at the concentrations used in the disclosed pharmaceutical compositions, experiments was performed that were designed to model dissolution testing according to International Council for Harmonisation (ICH) guidelines. […] Miscibility experiments were performed using two concentrations of oleic acid nominally above the CMC concentration for this fatty acid. In one series of experiments, 1 g of 100% oleic acid was added to the dissolution media. The control compound was 1 g of 100% MAISINE™ CC. In a second series of experiments 1 g of 75% oleic acid (diluted with 250 mg of MAISINE™ CC) was added to the dissolution media. The control compound was 1 g of 75% MAISINE™ CC. The miscibility of oleic acid and MAISINE™ CC was assessed by observing the dissolution media for 10 minutes with constant stirring and then 10 minutes without stirring. Photographs were taken at time 0, 1, 2, 3, 4, 5 and 10 minutes during the stirring phase and 2, 4 and 10 minutes after stirring ceased.

[2] = Solubility of olaparib in glycerolipids with and without digestion enhancers; type: physicochemical; details: 55 mg in 1 g of only MAISINE CC, only GELUCIRE 43/01, or their admixture, 130° C., stirred at least 60 minutes

## CCCCCCCC/C=C\CCCCCCCC(=O)O [oleic acid]
[1]
  miscibility in dissolution media: not miscible

## O=C(c1cc(Cc2n[nH]c(=O)c3ccccc23)ccc1F)N1CCN(C(=O)C2CC2)CC1 [olaparib]
[2]
  solubility of olaparib in glycerolipids without digestion enhancers: remained insoluble
